Laboratory results as given in patent publication US6486193B2, “3-substituted pyrrolidines useful as inhibitors of matrix metalloproteinases” (Aventis Pharmaceuticals Inc., priority 1998, dated 2002).

Legend:
MMP-1 = target: T1, MMP-1 (Homo sapiens, UniProt P03956); assay: Determination of inhibition constant (Ki) for MMP-1, fluorogenic substrate; format: biochemical; details: footnote: results are identical for MMP-1, MMP-2, MMP-3, MMP-13 and MMP-14, read-out: MMP Ki app
T1 construct: The active MMP-1 was obtained by treatment of proMMP-1 with trypsin; endogenous in cells; host or cells: human rheumatoid synovial fibroblasts stimulated with macrophage-conditioned medium (secreted proenzyme purified from the medium)
T1 sequence (P03956 100-469): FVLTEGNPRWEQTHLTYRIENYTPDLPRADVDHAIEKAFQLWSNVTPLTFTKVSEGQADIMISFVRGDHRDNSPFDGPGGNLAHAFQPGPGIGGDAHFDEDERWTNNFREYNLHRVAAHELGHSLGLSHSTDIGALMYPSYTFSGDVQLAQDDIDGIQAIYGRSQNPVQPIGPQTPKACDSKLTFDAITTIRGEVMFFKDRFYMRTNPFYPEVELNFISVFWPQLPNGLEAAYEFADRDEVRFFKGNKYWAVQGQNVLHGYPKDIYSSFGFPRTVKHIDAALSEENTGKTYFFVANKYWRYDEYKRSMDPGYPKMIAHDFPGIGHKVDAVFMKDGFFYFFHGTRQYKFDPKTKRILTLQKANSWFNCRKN
Protocol: (§1) ProMMP-1 (EC 3.4.24.7; interstitial collagenase) was purified from culture medium of human rheumatoid synovial fibroblasts stimulated with macrophage-conditioned medium according to Okada, Y. et al., J. Biol. Chem. 261, 14245-14255 (1986). The active MMP-1 was obtained by treatment of proMMP-1 with trypsin (5 μg/mL) at 37° C. for 30 minutes, followed by addition of soybean trypsin inhibitor (50 μg/mL).
Determination of Inhibition Constant (Ki) for MMP-1 The activated MMP-1 is assayed using a fluorogenic substrate, Mca-Pro-Leu-Gly-Leu-Dpa-Ala-Arg-NH2, Knight, C. G. et al., FEBS Lett. 296, 263-266 (1992), at 37° C. in 2.0 mL of assay buffer containing 50 mM Tris, pH 7.6, 0.2 M sodium chloride, 50 mM calcium chloride, and 0.02% Brij-35. The increase in fluorescence due to cleavage of Gly-Leu peptide bond by MMP-3 was monitored with Perkin-Elmer LS50B Fluorimeter (λex328 nm, λem 393 nm, excitation slit 2.5, emission slit 10). Substrate and inhibitor stock solutions were made in DMF. For determination of Ki values for MMP-1 inhibitors, a series of intermediate inhibitor solutions were prepared in DMF and 1 or 2 μL of the diluted inhibitor solution was mixed with 1 μL of 2 mM substrate solution in DMF in a quartz cuvette containing 2 mL of assay buffer. The enzyme (10 μL of 0.2 μM MMP-3 dilution in assay buffer) was added at the last to start the reaction. For routine measurement of a Ki value for a reversible, competitive inhibitor, the initial rates in the presence of at least four inhibitor concentrations (two concentrations above Ki and two concentrations below Ki) were measured using [S]=1 μM (<<Km) and [MMP-1]=0.8 nM. Under these conditions, the measured Ki app is close to true Ki.
(§2) The Ki for a competitive inhibitor is calculated using: v0/vi=(1+[I]/Ki, app) and Ki=Ki, app/(1+[S]/Km), where v0 is the initial rate in the absence of inhibitor, vi is the initial rate in the presence of inhibitor at the concentration of [I], [S] is the substrate concentration, and Km is the Michaelis constant. If slow binding is observed (i.e. if the approach to the binding equilibrium is slow), the final steady-state rate rather than the initial rate is taken as vi.

MMP-3 = target: T2, MMP-3 (Homo sapiens, UniProt P08254); assay: Determination of inhibition constant (Ki) for MMP-3, fluorogenic substrate; format: biochemical; details: footnote: results are identical for MMP-1, MMP-2, MMP-3, MMP-13 and MMP-14, read-out: MMP Ki app
T2 construct: The active MMP-3 was obtained by treatment of proMMP-3 with trypsin; endogenous in cells; host or cells: human rheumatoid synovial fibroblasts stimulated with macrophage-conditioned medium (secreted proenzyme purified from the medium)
Protocol: as §1, with “ProMMP-3” for “ProMMP-1”, “3.4.24.17; Stromelysin-1)” for “3.4.24.7; interstitial collagenase)”, “MMP-3” for “MMP-1”, “proMMP-3” for “proMMP-1”, “μg/mL). Aliquots of the activated MMP-3 were stored at −20° C.” for “μg/mL).”
The activated MMP-3 is assayed using a fluorogenic substrate, Mca-Pro-Leu-Gly-Leu-Dpa-Ala-Arg-NH2, Knight, C.G. et al., FEBS Lett. 296, 263-266 (1992), at 37° C. in an assay buffer containing 50 mM Tris, pH 7.6, 0.2 M sodium chloride, 50 mM calcium chloride, and 0.02% Brij-35. The increase in fluorescence due to cleavage of Gly-Leu peptide bond by MMP-3 was monitored with Perkin-Elmer LS50B Fluorimeter (λex 328 nm, λem 393 nm, excitation slit 2.5, emission slit 10). Substrate and inhibitor stock solutions were made in DMF and 0.1 % HCl-DMF, respectively. For determination of Ki values for MMP-3 inhibitors, a series of intermediate inhibitor solutions were prepared in 0.1% HCl-DMF and 1 or 2 μL of the diluted inhibitor solution was mixed with 1 μL of 2 mM substrate solution in DMF in a quartz cuvette containing 2 mL of assay buffer. The enzyme (10 μL of 0.2 μM MMP-3 dilution in assay buffer) was added at the last to start the reaction. For routine measurement of a Ki value for a reversible, competitive inhibitor, the initial rates in the presence of at least four inhibitor concentrations (two concentrations above Ki and two concentrations below Ki) were measured using [S]=1 μM (<<Km) and [MMP-3]=1 nM. Under these conditions, the measured Ki, app is close to true Ki.
as §2, with “The K,” for “The Ki”, “using: V0/vi=(1+[I]/Ki,” for “using: v0/vi=(1+[I]/Ki,”

T2 sequence (P08254 100-477): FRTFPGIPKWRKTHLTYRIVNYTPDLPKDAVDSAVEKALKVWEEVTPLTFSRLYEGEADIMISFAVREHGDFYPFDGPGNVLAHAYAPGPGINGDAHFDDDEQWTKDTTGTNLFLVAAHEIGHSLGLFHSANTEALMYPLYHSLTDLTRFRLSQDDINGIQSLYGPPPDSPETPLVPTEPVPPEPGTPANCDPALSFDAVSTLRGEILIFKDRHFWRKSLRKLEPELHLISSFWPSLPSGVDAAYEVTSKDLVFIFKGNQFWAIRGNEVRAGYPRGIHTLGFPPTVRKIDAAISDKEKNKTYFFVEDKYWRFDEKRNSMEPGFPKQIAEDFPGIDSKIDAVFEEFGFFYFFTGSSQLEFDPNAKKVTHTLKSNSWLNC

Row | SMILES | Ki (MMP-1) [µM] | Ki (MMP-3) [µM]
1 | CNC(=O)[C@@H](Cc1cccnc1)NC(=O)[C@@H]1C(Cc2ccccc2)CCN1C(=O)[C@@H](S)C(C)C (stereo in doubt) [Compound 1f, (2S,3S)-3-Benzyl-1-((S)-2-mercapto-3-methyl-butanoyl)-pyrrolidine-2-carboxylic acid ((R)-1-methylcarbamoyl-2-pyridin-3-yl-ethyl)-amide] | > 10 | > 10
2 | CNC(=O)[C@H](Cc1ccc(O)cc1)NC(=O)[C@@H]1[C@@H](Cc2ccccc2)CCN1C(=O)[C@@H](S)C(C)C [Compound 1a, (2S,3S)-3-Benzyl-1-((S)-2-mercapto-3-methyl-butanoyl)-pyrrolidine-2-carboxylic acid [(S)-2-(4-hydroxy-phenyl)-1-methylcarbamoyl-ethyl]-amide] | > 10 | > 10
3 | CNC(=O)[C@H](Cc1ccc(O)cc1)NC(=O)[C@@H]1[C@H](Cc2ccccc2)CCN1C(=O)[C@@H](S)C(C)C [Compound 1b, (2S,3R)-3-Benzyl-1-((S)-2-mercapto-3-methyl-butanoyl)-pyrrolidine-2-carboxylic acid [(S)-2-(4-hydroxy-phenyl)-1-methylcarbamoyl-ethyl]-amide] | > 10 | > 10
4 | CNC(=O)[C@H](Cc1cccnc1)NC(=O)[C@@H]1[C@@H](Cc2ccccc2)CCN1C(=O)[C@@H](S)C(C)C [Compound 1c, (2S,3S)-3-Benzyl-1-((S)-2-mercapto-3-methyl-butanoyl)-pyrrolidine-2-carboxylic acid ((S)-1-methylcarbamoyl-2-pyridin-3-yl-ethyl)-amide] | > 10 | > 10
5 | CNC(=O)[C@H](Cc1cccnc1)NC(=O)[C@@H]1[C@H](Cc2ccccc2)CCN1C(=O)[C@@H](S)C(C)C [Compound 1d, (2S,3R)-3-Benzyl-1-((S)-2-mercapto-3-methyl-butanoyl)-pyrrolidine-2-carboxylic acid ((S)-1-methylcarbamoyl-2-pyridin-3-yl-ethyl)-amide] | > 10 | > 10
6 | CNC(=O)[C@@H](Cc1cccnc1)NC(=O)[C@@H]1[C@@H](Cc2ccccc2)CCN1C(=O)[C@@H](S)C(C)C [Compound 1e, (2S,3S)-3-Benzyl-1-((S)-2-mercapto-3-methyl-butanoyl)-pyrrolidine-2-carboxylic acid ((R)-1-methylcarbamoyl-2-pyridin-3-yl-ethyl)-amide] | > 10 | > 10
7 | CNC(=O)[C@@H](NC(=O)[C@@H]1[C@@H](Cc2ccccc2)CCN1C(=O)[C@@H](S)C(C)C)C(C)(C)C [Compound 1g, (2S,3S)-3-Benzyl-1-((S)-2-mercapto-3-methyl-butanoyl)-pyrrolidine-2-carboxylic acid ((S)-2,2-dimethyl-1-methylcarbamoyl-propyl)-amide] | > 10 | > 10
8 | CNC(=O)[C@@H](NC(=O)[C@@H]1[C@H](Cc2ccccc2)CCN1C(=O)[C@@H](S)C(C)C)C(C)(C)C [Compound 1h, (2S,3R)-3-Benzyl-1-((S)-2-mercapto-3-methyl-butanoyl)-pyrrolidine-2-carboxylic acid ((S)-2,2-dimethyl-1-methylcarbamoyl-propyl)-amide] | > 10 | > 10
